The source of these data is patent US9309224B2 (Deciphera Pharmaceuticals, LLC, priority 2013, dated 2016).

Test [1] concerns the target T1, unphosphorylated PDGFRβ kinase (uPDGFRβ, Seq. ID No. 3) (Homo sapiens, UniProt P09619).
T1 construct: purchased DeCode
In words: Unphosphorylated PDGFRβ kinase assay (pyruvate kinase/lactate dehydrogenase coupled). Type of test: biochemical. Particulars: ATP 500 μM. From the text:
Unphosyhorylated PDGFRβ (uPDGFRβkinase (Seq. ID No. 3) assay

The target of test [2] is T2, unphosphorylated c-KIT kinase (uKIT, Seq. ID no. 2) (Homo sapiens, UniProt P10721).
T2 construct: uKit with N-terminal GST fusion used for
T2 sequence (P10721 with tags, fused parts or gaps): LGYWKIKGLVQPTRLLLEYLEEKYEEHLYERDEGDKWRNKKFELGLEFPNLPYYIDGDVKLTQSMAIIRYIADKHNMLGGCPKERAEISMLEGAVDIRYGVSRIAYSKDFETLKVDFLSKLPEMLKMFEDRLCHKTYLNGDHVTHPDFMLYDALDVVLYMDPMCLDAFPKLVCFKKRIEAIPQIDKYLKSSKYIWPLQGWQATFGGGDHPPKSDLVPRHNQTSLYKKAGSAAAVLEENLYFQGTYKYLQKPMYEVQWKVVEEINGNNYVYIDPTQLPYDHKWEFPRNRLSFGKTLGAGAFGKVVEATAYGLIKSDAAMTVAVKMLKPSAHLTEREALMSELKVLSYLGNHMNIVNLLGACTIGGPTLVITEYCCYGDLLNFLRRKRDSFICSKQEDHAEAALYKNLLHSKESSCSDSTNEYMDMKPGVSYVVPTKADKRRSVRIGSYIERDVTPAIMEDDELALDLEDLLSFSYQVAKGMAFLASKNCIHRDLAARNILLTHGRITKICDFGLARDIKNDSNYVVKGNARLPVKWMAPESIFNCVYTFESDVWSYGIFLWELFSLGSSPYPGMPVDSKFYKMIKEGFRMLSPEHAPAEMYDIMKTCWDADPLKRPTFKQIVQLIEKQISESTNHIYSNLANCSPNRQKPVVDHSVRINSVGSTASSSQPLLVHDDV
In words: uKit kinase assay (pyruvate kinase/lactate dehydrogenase coupled). To be noted: ATP 2000 μM. Type of test: biochemical.
Method: In this assay, the oxidation of NADH (thus the decrease at A340 nm) was continuously monitored spectrophometrically. […] The inhibition reaction was started by mixing serial diluted test compound with the above reaction mixture. The absorption at 340 nm was monitored continuously for 4 hours at 30° C. on Synergy 2 plate reader (BioTech).

The next test has as its system osteoclast precursors. In words: Osteoclast tartrate-resistant acid phosphatase assay. In kind it is cell-based. To be noted: Osteoclast; 7-14 days, RANKL and M-CSF. The method, then:
Diluted compound was transferred to a 384-well black clear bottom plate. Two-thousand five hundred osteoclast precursors (Lonza, Walkersville, Md.) were added per well in growth media containing Receptor Activator of Nuclear Factor Kappa-beta ligand (RANKL) and M-CSF (R&D Systems, Minneapolis, Minn.). Plates were incubated for 7-14 days at 37 degrees Celsius, 5% CO2, and 95% humidity to allow differentiation of osteoclast precursors. […] Tartrate-resistant acid phosphatase activity in the supernatant samples was determined using an acid phosphatase assay kit (Sigma, St. Louis, Mo.). Absorbance was measured at 550 nm using a plate reader. Data was analyzed using Prism software (Graphpad, San Diego, Calif.) to calculate IC50 values.

The next test deals with M-NFS-60 cells. In words: M-NFS-60 cell proliferation assay. In kind it is cell-based. Particulars: 67 h incubation, resazurin.
Test [3] addresses T3, unphosphorylated c-FMS kinase (uFMS, Seq. ID no. 1) (Homo sapiens, UniProt P07333).
T3 construct: purchased Millipore
T3 sequence (P07333 538-972): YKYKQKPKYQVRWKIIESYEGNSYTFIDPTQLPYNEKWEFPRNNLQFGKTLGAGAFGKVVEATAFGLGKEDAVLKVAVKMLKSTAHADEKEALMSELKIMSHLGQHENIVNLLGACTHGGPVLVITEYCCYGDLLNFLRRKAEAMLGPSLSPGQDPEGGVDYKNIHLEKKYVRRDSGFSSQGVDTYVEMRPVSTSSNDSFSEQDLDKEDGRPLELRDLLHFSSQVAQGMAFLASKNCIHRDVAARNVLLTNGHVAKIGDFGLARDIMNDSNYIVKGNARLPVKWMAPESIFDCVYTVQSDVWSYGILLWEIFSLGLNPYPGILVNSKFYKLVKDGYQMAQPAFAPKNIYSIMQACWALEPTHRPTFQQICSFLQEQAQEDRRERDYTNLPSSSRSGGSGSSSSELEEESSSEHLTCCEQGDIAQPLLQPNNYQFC
In words: uFMS kinase assay (pyruvate kinase/lactate dehydrogenase coupled). Type of test: biochemical. Particulars: ATP 500 μM.
Method: In this assay, the oxidation of NADH (thus the decrease at A340 nm) was continuously monitored spectrophometrically. The reaction mixture (100 μL) contained FMS (purchased from Millipore) (10 nM), polyE4Y (1 mg/mL), MgCl2 (10 mM), pyruvate kinase (4 units), lactate dehydrogenase (0.7 units), phosphoenol pyruvate (1 mM), NADH (0.28 mM) and ATP (500 μM) in 90 mM Tris buffer containing 0.2% octyl-glucoside and 1% DMSO, pH 7.5. The inhibition reaction was started by mixing serial diluted test compound with the above reaction mixture. The absorption at 340 nm was monitored continuously for 4 hours at 30° C. on Synergy 2 plate reader. The reaction rate was calculated using the 3 to 4 h time frame. Percent inhibition was obtained by comparison of reaction rate with that of a control (i.e. in the absence of test compound). IC50 values were calculated from a series of percent inhibition values determined at a range of inhibitor concentrations using software routines as implemented in the GraphPad Prism software package.

A value given as a limit tells only on which side of the number the result lay.

T1 sequence (P09619 557-1105): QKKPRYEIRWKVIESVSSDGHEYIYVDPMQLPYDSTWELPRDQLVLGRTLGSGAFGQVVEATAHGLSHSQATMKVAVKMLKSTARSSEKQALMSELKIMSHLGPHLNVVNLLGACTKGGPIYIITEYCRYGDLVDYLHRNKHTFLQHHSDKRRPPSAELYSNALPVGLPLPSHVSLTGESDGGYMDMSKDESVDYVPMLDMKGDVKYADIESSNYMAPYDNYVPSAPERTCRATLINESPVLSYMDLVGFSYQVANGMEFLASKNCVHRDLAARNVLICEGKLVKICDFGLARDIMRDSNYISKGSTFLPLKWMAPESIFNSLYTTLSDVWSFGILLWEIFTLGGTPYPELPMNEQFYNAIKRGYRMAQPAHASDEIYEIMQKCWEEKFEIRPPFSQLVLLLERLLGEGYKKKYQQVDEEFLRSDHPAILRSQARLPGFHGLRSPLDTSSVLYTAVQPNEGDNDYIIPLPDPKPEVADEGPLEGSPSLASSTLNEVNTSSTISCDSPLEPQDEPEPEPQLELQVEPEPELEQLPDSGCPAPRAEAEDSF
Method for M-NFS-60 cells: M-NFS-60 Cell Proliferation Assay A serial dilution of test compound was dispensed into a 384-well black clear bottom plate (Corning, Corning, N.Y.). Two thousand five hundred cells were added per well in 50 μL complete growth medium. […] IC50 values were calculated from a series of percent inhibition values determined at a range of inhibitor concentrations using software routines as implemented in the GraphPad Prism software package.

Turning to `CN(C)C1CC(C(=O)Nc2cc(Oc3ccc(NC(=O)NC(=O)C(C)(C)C)nc3)ccn2)C1` (centres unmarked) [Example 60, (1s,3s)-3-(dimethylamino)-N-(4-((6-(3-pivaloylureido)pyridin-3-yl)oxy)pyridin-2-yl)cyclobutanecarboxamide], the half-maximal inhibitory concentration (IC50) in test [1] is 100 to 1000 nM; in test [2] it was > 1000 nM; in the test on osteoclast precursors, 10 to 100 nM; with M-NFS-60 cells, 100 to 1000 nM; in test [3] it was 10 to 100 nM.

For `CC(=O)Nc1cc(Oc2ccc(NC(=O)NC(=O)C3CC4CCC3O4)nc2)ccn1` (centres unmarked) [Example 28, N-((5-((2-acetamidopyridin-4-yl)oxy)pyridin-2-yl)carbamoyl)-7-oxabicyclo[2.2.1]heptane-2-carboxamide], the IC50 in test [2] was 100 to 1000 nM; in the test with osteoclast precursors, < 10 nM; with M-NFS-60 cells it was 10 to 100 nM; in test [3], < 10 nM.

`CC(=O)Nc1cc(Oc2ccc(NC(=O)NC(=O)C3CCOC3)nc2)ccn1` (centres unmarked) [Example 22, N-((5-((2-acetamidopyridin-4-yl)oxy)pyridin-2-yl)carbamoyl)tetrahydrofuran-3-carboxamide]: the IC50 in test [1] was > 1000 nM; in test [2] it was > 1000 nM; with osteoclast precursors, 10 to 100 nM; in the test with M-NFS-60 cells it was 100 to 1000 nM; in test [3], 10 to 100 nM.

With `CC(=O)Nc1cc(Oc2ccc(NC(=O)NC(=O)C3(C)CCC3)nc2C)ccn1` [Example 43, N-((5-((2-acetamidopyridin-4-yl)oxy)-6-methylpyridin-2-yl)carbamoyl)-1-methylcyclobutanecarboxamide], the IC50 was 100 to 1000 nM in test [1]; 100 to 1000 nM in test [2]; < 10 nM with osteoclast precursors; < 10 nM in the test with M-NFS-60 cells; < 10 nM in test [3].

As to `CCC(=O)NC(=O)Nc1ccc(Oc2ccnc(NC(C)=O)c2)cn1` [Example 16, N-((5-((2-acetamidopyridin-4-yl)oxy)pyridin-2-yl)carbamoyl)propionamide], the IC50 in test [1] was > 1000 nM; in test [2], > 1000 nM; in the test with osteoclast precursors, 100 to 1000 nM; with M-NFS-60 cells, 100 to 1000 nM; in test [3], 100 to 1000 nM.

With `COC1(C(=O)NC(=O)Nc2ccc(Oc3ccnc(NC(=O)C4CCN(C)CC4)c3)cn2)CC1` [Example 49, N-(4-((6-(3-(1-methoxycyclopropanecarbonyl)ureido)pyridin-3-yl)oxy)pyridin-2-yl)-1-methylpiperidine-4-carboxamide], the half-inhibitory concentration (IC50) in test [1] was > 1000 nM; in test [2], > 1000 nM; in the test with osteoclast precursors, 100 to 1000 nM; in the test on M-NFS-60 cells, > 1000 nM; in test [3], 10 to 100 nM.

In the case of `CNC(=O)c1cc(Oc2ccc(NC(=O)NC(=O)C3(C(F)(F)F)CCC3)nc2)ccn1` [Example 72, N-methyl-4-((6-(3-(1-(trifluoromethyl)cyclobutanecarbonyl)ureido)pyridin-3-yl)oxy)picolinamide], the IC50 in test [1] is > 1000 nM; in test [2], > 1000 nM; in the test with osteoclast precursors it was 10 to 100 nM; in the test on M-NFS-60 cells, 100 to 1000 nM; in test [3], 10 to 100 nM.

With `CC(C)NC(=O)c1cc(Oc2ccc(NC(=O)NC(=O)C(C)(C)C)nc2)ccn1` [Example 73, N-isopropyl-4-((6-(3-pivaloylureido)pyridin-3-yl)oxy)picolinamide], the 50% inhibitory concentration (IC50) in test [1] is > 1000 nM; in test [2], > 1000 nM; in the test with osteoclast precursors, 10 to 100 nM; with M-NFS-60 cells it was > 1000 nM; in test [3], 100 to 1000 nM.

As to `CN(C)C(=O)Nc1cc(Oc2ccc(NC(=O)NC(=O)C3CCOCC3)nc2)ccn1` [Example 51, N-((5-((2-(3,3-dimethylureido)pyridin-4-yl)oxy)pyridin-2-yl)carbamoyl)tetrahydro-2H-pyran-4-carboxamide], the IC50 is 10 to 100 nM in test [1]; 100 to 1000 nM in test [2]; 10 to 100 nM with osteoclast precursors; 10 to 100 nM in the test on M-NFS-60 cells; < 10 nM in test [3].

In the case of `CC(=O)Nc1cc(Oc2ccc(NC(=O)NC(=O)C3CCCCC3)nc2)ccn1` [Example 1, N-((5-((2-acetamidopyridin-4-yl)oxy)pyridin-2-yl)carbamoyl)cyclohexanecarboxamide], the IC50 in test [2] was 100 to 1000 nM; with osteoclast precursors, < 10 nM; with M-NFS-60 cells, < 10 nM; in test [3], 10 to 100 nM.

As for `CC(=O)Nc1cc(Oc2ccc(NC(=O)NC(=O)C3(C)CCC3)nc2)ccn1` [Example 44, N-((5-((2-acetamidopyridin-4-yl)oxy)pyridin-2-yl)carbamoyl)-1-methylcyclobutanecarboxamide], the concentration for half-maximal inhibition (IC50) in test [1] is 100 to 1000 nM; in test [2] it was 100 to 1000 nM; with osteoclast precursors it was < 10 nM; in the test on M-NFS-60 cells, < 10 nM; in test [3], < 10 nM.

For `CC(C)(C)C(=O)NC(=O)Nc1ccc(Oc2ccnc(NC(=O)CC#N)c2)cn1` [Example 56, N-((5-((2-(2-cyanoacetamido)pyridin-4-yl)oxy)pyridin-2-yl)carbamoyl)pivalamide], the half-inhibitory concentration (IC50) in test [1] is 100 to 1000 nM; in test [2], > 1000 nM; in the test with osteoclast precursors, 100 to 1000 nM; in the test on M-NFS-60 cells it was > 1000 nM; in test [3], 10 to 100 nM.

As to `Cn1cnc(C(=O)Nc2cc(Oc3ccc(NC(=O)NC(=O)C(C)(C)C)nc3)ccn2)c1` [Example 59, 1-methyl-N-(4-((6-(3-pivaloylureido)pyridin-3-yl)oxy)pyridin-2-yl)-1H-imidazole-4-carboxamide], the IC50 was 100 to 1000 nM in test [1]; 100 to 1000 nM in test [2]; < 10 nM with osteoclast precursors; < 10 nM in the test on M-NFS-60 cells; < 10 nM in test [3].

On to `Cn1cc(C(=O)Nc2cc(Oc3ccc(NC(=O)NC(=O)C(C)(C)C)nc3)ccn2)cn1` [Example 52, 1-methyl-N-(4-((6-(3-pivaloylureido)pyridin-3-yl)oxy)pyridin-2-yl)-1H-pyrazole-4-carboxamide], for which the half-maximal inhibitory concentration (IC50) in test [1] is 100 to 1000 nM; in test [2] it was 10 to 100 nM; in the test with osteoclast precursors it was < 10 nM; in the test on M-NFS-60 cells, < 10 nM; in test [3] it was < 10 nM.

Take `CC(=O)Nc1cc(Oc2ccc(NC(=O)NC(=O)C3CC4CCC3O4)nc2C)ccn1` (centres unmarked) [Example 29, N-((5-((2-acetamidopyridin-4-yl)oxy)-6-methylpyridin-2-yl)carbamoyl)-7-oxabicyclo[2.2.1]heptane-2-carboxamide]: the half-inhibitory concentration (IC50) in test [2] is > 1000 nM; in the test with osteoclast precursors it was 10 to 100 nM; in the test on M-NFS-60 cells it was 10 to 100 nM; in test [3], 10 to 100 nM.

With `CC(=O)Nc1cc(Oc2ccc(NC(=O)NC(=O)CC3CCCCC3)nc2)ccn1` [Example 4, N-((5-((2-acetamidopyridin-4-yl)oxy)pyridin-2-yl)carbamoyl)-2-cyclohexylacetamide], the concentration for half-maximal inhibition (IC50) in test [2] is 10 to 100 nM; in the test on osteoclast precursors, < 10 nM; in the test with M-NFS-60 cells, < 10 nM; in test [3] it was < 10 nM.

For the compound `COC(C)(C)C(=O)NC(=O)Nc1ccc(Oc2ccnc(NC(=O)C3CCN(C)CC3)c2)cn1` [Example 40, N-(4-((6-(3-(2-methoxy-2-methylpropanoyl)ureido)pyridin-3-yl)oxy)pyridin-2-yl)-1-methylpiperidine-4-carboxamide], the 50% inhibitory concentration (IC50) in test [2] was > 1000 nM; in the test with osteoclast precursors, 10 to 100 nM; in the test with M-NFS-60 cells, 100 to 1000 nM; in test [3], 10 to 100 nM.
